Structures can show the parent of a compound that is named as a salt.
test: Water solubility of the isolated potassium salt; format: physicochemical; settings: solid obtained from the acid with KOH in MeOH (potassium salt)
Protocol: The compound of Example 137 was hydrolyzed using an excess of aqueous 10% NaOH in methanol, stirring overnight. The reaction mixture was concentrated in vacuo, water was added, and the solution was extracted with ether. The mixture was acidified; the resultant solid was collected by filtration and dried overnight in a vacuum oven, giving a white solid, m.p. 166-171C. ^1H-NMR (DMSO 300 MHz) δ 1.17 (t, J=7 Hz, 3H), broad peaks totaling 9 protons at 1.32-1.48, 1.51-1.78, 1.90-2.04, 2.25-2.50, 2.80-2.90, 2.95-3.17, 3.45-3.51, 3.95-4.19, 4.41-4.51, 4.06 (q, J=7 Hz, 1H), 6.80 (d, J=9 Hz, 1H), 7.01 (t, J=7 Hz, 1H), 7.15 (d, J=8 Hz, 1H), 7.26-7.40 (m, 2H), 7.40-7.48 (m, 1H), 7.51 (dd, J=9 Hz, 2 Hz, 1H), 7.99 (d, J=9 Hz, 1H). Anal. Calcd. for C23H24ClNO4S: C, 61.94; H, 5.42; N, 3.14. Found: C, 61.75; H, 5.65; N, 3.15. The resultant acid (303 mg, 0.631 mmol) was dissolved in 3 mL MeOH. A KOH solution (38 mg, 0.595 mmol, of 87.6% KOH) in 1 ml MeOH was added. The resulting solution was concentrated in vacuo, and 5 mL ether was added. The mixture was stirred for one hour to form a powder, which was filtered and dried in the vacuum oven at 60C to yield 307 mg of a solid, water soluble product. […]

solubility in water	Compound
water soluble	CCOc1ccccc1Sc1ccc(/C=C/C(=O)N2CCCC(C(=O)O)C2)cc1Cl (stereo not shown) [Example 155, (2-Ethoxyphenyl)-[2-chloro-4-(E-[(3-carboxypiperidin-1-yl)carbonyl]ethenyl)phenyl]sulfide]
water-soluble	CCOc1ccccc1Sc1ccc(/C=C/C(=O)N2CCCC(C(=O)O)C2)c(Cl)c1Cl (stereo not shown) [Example 343]

test: not given; settings: not given

Compound	melting point
CCOc1ccccc1Sc1ccc(/C=C/C(=O)N2CCCCC2C(=O)O)cc1Cl (stereo not shown) [Example 158, (2-Ethoxyphenyl)-[2-chloro-4-(E-[(2-carboxypiperidin-1-yl)carbonyl]ethenyl)phenyl]sulfide]	170 to 171 °C
CCOC(=O)C1CCCN(C(=O)/C=C/c2ccc(Sc3ccc4c(c3)OCCO4)c([N+](=O)[O-])c2)C1 (stereo not shown) [Example 197, (Benzodioxan-6-yl)[2-nitro-4-(E-((3-carboethoxypiperidin-1-yl)carbonyl)ethenyl)phenyl]sulfide]	73 to 75 °C
CCOC(=O)C1CCCCN1C(=O)/C=C/c1ccc(Sc2ccc3c(c2)OCCO3)c([N+](=O)[O-])c1 (stereo not shown) [Example 203, (Benzodioxan-6-yl)[2-nitro-4-(E-((2-carboethoxypiperidin-1-yl)carbonyl)ethenyl)phenyl]sulfide]	74 to 75 °C
CC(C)(C)OC(=O)N1CCN(C(=O)/C=C/c2ccc(Sc3ccc4c(c3)OCCO4)c([N+](=O)[O-])c2)CC1 [Example 205, (Benzodioxan-6-yl)[2-nitro-4-(E-((4-tert-butoxycarbonylpiperazin-1-yl)carbonyl)ethenyl)phenyl]sulfide]	165 to 167 °C
COC(=O)C1CN(C(=O)OC(C)(C)C)CCN1C(=O)/C=C/c1ccc(Sc2ccc3c(c2)OCCO3)c(C(F)(F)F)c1 (stereo not shown) [Example 253, (Benzodioxan-6-yl)[2-trifluoromethyl-4-(E-((2-carbomethoxy-4-tert-butoxycarbonylpiperazin-1-yl)carbonyl)ethenyl)phenyl]sulfide]	85 to 87 °C
O=C(O)C1CCCCN1C(=O)/C=C/c1ccc(Sc2ccc3c(c2)OCCO3)c(C(F)(F)F)c1 (stereo not shown) [Example 264, (Benzodioxan-6-yl)[2-trifluoromethyl-4-(E-((2-carboxypiperidin-1-yl)carbonyl)ethenyl)phenyl]sulfide]	90 °C (dec.)
COC(=O)N1CCN(C(=O)/C=C/c2ccc(Sc3ccc4c(c3)OCCO4)c(C(F)(F)F)c2)C(C(=O)O)C1 (stereo not shown) [Example 271, (Benzodioxan-6-yl)[2-trifluoromethyl-4-(E-((2-carboxy-4-methoxycarbonylpiperazin-1-yl)carbonyl)ethenyl)phenyl]sulfide]	102 °C (dec.)
Nc1ccccc1Sc1ccc(/C=C/C(=O)N2CCOCC2)c(Cl)c1Cl [Example 410, (2-Aminophenyl)[2,3-dichloro-4-(E-((4-morpholinyl)carbonyl)ethenyl)phenyl]sulfide]	230 to 240 °C (dec.)

More lines, now with the values ahead:

melting point	Compound
120 °C (dec.)	O=C(O)CN1CCN(C(=O)/C=C/c2ccc(Sc3ccc4c(c3)OCCO4)c([N+](=O)[O-])c2)CC1 (as salt: salt) [Example 221, (Benzodioxan-6-yl)[2-nitro-4-(E-((4-carboxymethylpiperazin-1-yl)carbonyl)ethenyl)phenyl]sulfide]
166 to 171 °C	CCOc1ccccc1Sc1ccc(/C=C/C(=O)N2CCCC(C(=O)O)C2)cc1Cl (stereo not shown) [Example 155, (2-Ethoxyphenyl)-[2-chloro-4-(E-[(3-carboxypiperidin-1-yl)carbonyl]ethenyl)phenyl]sulfide]
165 °C (dec.)	O=C(O)C1CCCCN1C(=O)/C=C/c1ccc(Sc2ccc3c(c2)OCCO3)c([N+](=O)[O-])c1 (stereo not shown) [Example 220, (Benzodioxan-6-yl)[2-nitro-4-(E-((2-carboxypiperidin-1-yl)carbonyl)ethenyl)phenyl]sulfide]
70 to 72 °C	COC(=O)C1CNCCN1C(=O)/C=C/c1ccc(Sc2ccc3c(c2)OCCO3)c(C(F)(F)F)c1 (stereo not shown) [Example 255, (Benzodioxan-6-yl)[2-trifluoromethyl-4-(E-((2-carbomethoxypiperazin-1-yl)carbonyl)ethenyl)phenyl]sulfide]
88 °C (dec.)	O=C(O)C1CCN(C(=O)/C=C/c2ccc(Sc3ccc4c(c3)OCCO4)c(C(F)(F)F)c2)CC1 [Example 263, (Benzodioxan-6-yl)[2-trifluoromethyl-4-(E-((4-carboxypiperidin-1-yl)carbonyl)ethenyl)phenyl]sulfide]
56 °C (dec.)	COC(=O)C1CN(C(=O)/C=C/c2ccc(Sc3ccc4c(c3)OCCO4)c(C(F)(F)F)c2)CCN1C(=O)OC (stereo not shown) [Example 269, (Benzodioxan-6-yl)[2-trifluoromethyl-4-(E-((3-carbomethoxy-4-methoxycarbonylpiperazin-1-yl)carbonyl)ethenyl)phenyl]sulfide]
